Test results reported in US12252517B2, “Hook fusion protein for regulating the cellular trafficking of a target protein” (INSTITUT CURIE, priority 2017, dated 2025).

Key:
Assay type in all cases: cell-based
scFvCD19-Myc-DAP10-sSBP = experiment: Time course release using biotin (RUSH traffic, immunofluorescence) with Str-endoKKXX hook; details: HeLa cells, addition of biotin (40 μM)
Description: (§1) HeLa cells were cultivated at 37° C. and 5% of CO2 in Dulbecco's modified Eagle medium (DMEM) supplemented with 10%1-BS (Biowest), 1 mM sodium Pyruvate and […] of penicillin and streptomycin (Invitrogen). HeLa cells were transfected with the plasmid of interest using Calcium phosphate protocol in the presence of 25 mM of HEPES. Briefly, the plasmids coding the sequence of CAR based RUSH such as CD3-SBP-NKG2D (SEQ ID NO: 13), scFv(CD19)-GFP-DAP10CD3-sSBP (SEQ ID NO: 23), scFv(CD19)-GFP-DAP10-SBPdel (SEQ ID NO: 24), scFv(CD19)-mycDAP10-SBP (SEQ ID NO: 25) or BACE1-SBP-EGFP (SEQ ID NO: 26) (2.5 ug per 1 mL of final volume) were add to 1 mM tris-HCl pH 8.02 buffer followed by the addition of 10% of CaCl2 and incubated for 5 min (RT). Then this mix was add drop by drop into 2× concentrate HEBS buffer (160 mM NaCl, 1.5 mM Na2HPO4, 50 mM Hepes PH 7.04-7.05) while vortexing. The cells were incubated with this solution overnight at 37° C. and 5% of CO2.
(§2) The cells were seeded into a glass coverslips for fixed cell immunofluorescence and/or live imaging. In the next day the cells were transfected with the plasmids coding the construct of interest as previously described. For the steady state of the protein/construct, 40 μM final concentration of biotin was added (4 mM stock solution) just after addition of the transfection solution. […]

[1] = system: scFv (CD19)-GFP-DAP10-sSBP; experiment: Time course release using biotin (RUSH traffic) with soluble mini hook; details: HeLa cells, addition of biotin
Description: as §1, §2

[2] = system: scFv (CD19)-GFP-DAP10CD3-sSBP; experiment: as above; details: HeLa cells, addition of biotin
Description: as §1, §2

[3] = system: BACE1-GFP-SBP (BACE1-RUSH); experiment: Retention, ALiS-1 release and wash-out retrieval from the cell surface; details: HeLa cells
Description: as §1
Biotin-mimetic molecule ALiS-1 was prepared in DMSO to 20 mM (stock solution) and the cells were treated with 40 μM final concentration to prevent the interaction between the reporter (target membrane protein) and the hook.
Cells coated in the coverslips were washed once in 1×PBS buffer, fixed in 3% of paraformaldehyde (PFA) (10-15 min, RT), washed (2×) and incubated with 50 mM of NH4Cl (5 min, RT) to quench free aldehydes. […]

| Molecule | release of reporter from the hook (scFvCD19-Myc-DAP10-sSBP) | release of reporter from the hook [1] | release of reporter from the hook [2] | localization of reporter ([3]; absence of releasing molecule (without biotin)) | retrieval of cell surface reporter back to the ER ([3]; washing-out ALiS-1 for 1 hour) |
| --- | --- | --- | --- | --- | --- |
| O=C(O)CCCC[C@@H]1SC[C@@H]2NC(=O)N[C@@H]21 [biotin] | released | leads to the release | leads to the release |  |  |
| Ii Hook: previously described Invariant chain-based Hook: streptavidin fused to human invariant chain Ii (Boncompain et al. 2012) (protein, left off: large carriers) MHRRRSRSCREDQKPVMDDQRDLISNNEQLPMLGRRPGAPESKCSRGALYTGFSILVTLLLAGQATTAYFLYQQQGRLDKLTVTSQNLQLENLRMKLPKPPKPVSKMRMATPLLMQALPMGALPQGPMQNATKYGNMTEDHVMHLLQNADPLKVYPPLKGSFPENLRHLKNTMETIDWKVFESWMHHWLLFEMSRHSLEQKPTDAPPKESLELEDPSSGLGVTKQDLGPVPM |  |  |  | retained in the ER | does not allow to capture cell surface localized BAC1-RUSH |
